Laboratory results as given in patent publication US10752612B2, “PLK4 inhibitors” (LUDWIG INSTITUTE FOR CANCER RESEARCH LTD, priority 2015, dated 2020).
Like-named read-outs stand apart in the source and are kept apart here.

Assays:
human Aurora A = target: T1, human Aurora A (Homo sapiens, UniProt O14965); assay: Aurora A kinase assay (ADP-Glo); format: biochemical
T1 construct: purchased Millipore
T1 sequence (O14965 1-403): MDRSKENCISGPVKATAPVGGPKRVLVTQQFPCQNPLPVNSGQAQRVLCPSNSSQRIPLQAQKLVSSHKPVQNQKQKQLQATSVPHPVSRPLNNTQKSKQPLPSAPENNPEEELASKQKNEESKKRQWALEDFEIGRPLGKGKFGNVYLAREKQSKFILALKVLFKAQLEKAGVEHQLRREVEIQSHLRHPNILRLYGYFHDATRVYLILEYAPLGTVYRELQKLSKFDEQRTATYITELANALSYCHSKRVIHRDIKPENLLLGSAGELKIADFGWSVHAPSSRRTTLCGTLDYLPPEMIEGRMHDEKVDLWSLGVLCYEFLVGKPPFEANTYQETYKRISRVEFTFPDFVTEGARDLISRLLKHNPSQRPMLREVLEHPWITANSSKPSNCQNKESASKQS
Experimental: LRRASLG)+inhibitors arrayed in dose response (added as described above). […] Detection, measurement and data analysis were performed as described above.

TNK1 = target: T2, TNK1 (Homo sapiens, UniProt Q13470); assay: Radiometric kinase assay, off-target TNK1; format: biochemical; conditions: off-target from DiscoveRx kinome profiling
T2 construct: Reaction Biology (Malvern, Pa.), contract assay
T2 sequence (Q13470 1-666): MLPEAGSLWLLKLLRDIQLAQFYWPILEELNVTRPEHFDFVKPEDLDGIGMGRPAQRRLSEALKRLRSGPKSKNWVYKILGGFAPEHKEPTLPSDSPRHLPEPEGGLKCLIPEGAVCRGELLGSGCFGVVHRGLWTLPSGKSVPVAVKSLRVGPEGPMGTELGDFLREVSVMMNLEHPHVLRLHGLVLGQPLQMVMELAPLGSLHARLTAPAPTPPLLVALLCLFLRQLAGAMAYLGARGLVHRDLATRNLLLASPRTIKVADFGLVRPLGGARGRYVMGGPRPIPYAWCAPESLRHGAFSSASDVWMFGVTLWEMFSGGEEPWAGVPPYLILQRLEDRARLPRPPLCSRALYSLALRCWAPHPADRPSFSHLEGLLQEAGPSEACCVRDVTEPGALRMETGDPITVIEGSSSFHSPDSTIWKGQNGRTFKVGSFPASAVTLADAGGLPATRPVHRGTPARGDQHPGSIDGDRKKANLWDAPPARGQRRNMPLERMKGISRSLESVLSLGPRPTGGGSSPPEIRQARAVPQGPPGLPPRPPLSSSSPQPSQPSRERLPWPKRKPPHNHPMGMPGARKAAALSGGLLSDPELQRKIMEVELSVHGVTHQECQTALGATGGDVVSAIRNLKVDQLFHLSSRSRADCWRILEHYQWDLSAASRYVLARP
Experimental: Aurora B and other radiometric kinase assays were performed by Reaction Biology (Malvern, Pa.). Kinome profiling of centrinone and centrinone-B was performed by DiscoveRx (San Diego, Calif.).

[1] = tested on: Xenopus multiciliated cells; assay: Multiciliation assay in Xenopus embryos; format: in vivo
Experimental: Multiciliation assay in Xenopus embryos. Xenopus embryos were obtained by in vitro fertilization using standard protocols (49) approved by the Northwestern University Institutional Animal Care and Use Committee. Fertilized Xenopus embryos were injected with mRNA encoding the centriole marker Centrin4-GFP (333 pg/embryo) and a Dexamethasone-inducible Multicilin (hGR 3′MCI; 160 pg/embryo) (50, 51). […] Embryos were treated for 13 hours at room temperature, fixed in 4% paraformaldehyde and treated with the actin stain phalloidin. Confocal image stacks were collected using a Nikon AIR microscope and centriole numbers were manually quantified in Nikon Elements software. For each condition, centriole numbers were quantified from approximately 100 cells from at least 3 embryos.

NIH/3T3 cells [2] = assay: Analysis of mitosis, NIH/3T3 centrin-GFP H2B-RFP; format: cell-based, mouse; conditions: centrosome-less NIH/3T3 cells
Experimental: (§1) Analysis of mitosis and daughter cell fate. […] Cells were seeded into 96-well cycloolefin plates at 5000 cells/well, 8-10 hours before imaging. Movies were acquired on the CV1000 with a 40×0.95 NA U-PlanApo objective. The imaging chamber was maintained at 37° C. and 5% CO2. Image acquisition and data analysis were performed using CellVoyager software. 20 fields/well were imaged. For HeLa and NIH/3T3 cells, 5×2 μm z-sections in the GFP (25% power, 125 ms, 30% gain) and RFP (25% power, 100 ms, 30% gain) channels were captured in each field, at 5-minute intervals for 24 hours. For RPE1 cells, 5×2 μm z-sections in the GFP (20% power, 100 ms, 30% gain) and RFP (25% power, 100 ms, 30% gain) channels were captured in each field, at 5-minute intervals for 8 hours. To track RPE1 daughter cell fate, imaging was then switched to 3×4 μm z-sections in the RFP channel only, at 10-minute intervals for 48 hours. Mitosis was measured from nuclear envelope breakdown to anaphase onset (or arrest). Results represent combined measurements of 100 mother cells per condition from 2-4 independent experiments.

RPE1 cells = assay: Analysis of mitosis and daughter cell fate, RPE1; format: cell-based, human
Experimental: as §1
To study the correlation between mother cell prometaphase duration and daughter cell fate, RPE1 cells co-expressing centrin-GFP and H2B-RFP were seeded into 96-well cycloolefin plates at 5000 cells/well, 8-10 hours before imaging. Cells were treated with 80 nM nocodazole and immediately imaged on the CV1000 system with a 40×0.95 NA U-PlanApo objective. The imaging chamber was maintained at 37° C. and 5% CO2. 20 fields/well were imaged. 5×2 Lm z-sections in the GFP (20% power, 100 ms, 30% gain) and RFP (25% power, 100 ms, 30% gain) channels were captured in each field, at 5-minute intervals for 6 hours. The plate was then removed from the microscope, and wells were washed 6 times with warm medium. The plate was returned to the microscope, and imaging was resumed, capturing 3×4 Lm z-sections in the RFP channel only, at 10-minute intervals for 50 hours. To study the effect of chromosome missegregation on daughter cell fate, cells were treated with 1 LM NMS-P715 to inhibit the spindle assembly checkpoint kinase Mps1, then imaged as described above. Only mitotic events with clear missegregation (lagging chromosomes and subsequent formation of daughter cells with micronuclei) were analyzed. For both experiments, results represent combined measurements of 100 mother cells from 2 independent experiments.

NIH/3T3 cells [3] = assay: Proliferation assay, NIH/3T3; format: cell-based, mouse
Experimental: Proliferation assays. For each condition, cells were seeded in triplicate into 6-well plates at 50,000 cells/well. Compounds were added at the indicated concentrations. At 24-hour intervals, 3 wells were harvested per condition. Cell counting was performed using a TC10 automated cell counter (Bio-Rad). Results are from 3 independent experiments.

SMILES: COc1c(Nc2cc(C)[nH]n2)nc(Sc2ccc(S(=O)(=O)Cc3cccc([N+](=O)[O-])c3F)cc2F)nc1N1CCOCC1 [Centrinone, 2-((2-fluoro-4-((2-fluoro-3-nitrobenzyl)sulfonyl)phenyl)thio)-5-methoxy-N-(5-methyl-1H-pyrazol-3-yl)-6-morpholinopyrimidin-4-amine]
- Ki (human Aurora A): 171 nM
- Ki (TNK1): 1.38 nM
- centriole number in multiciliated cells [1]: dramatically reduced centriole numbers
- centriole number in multiciliated cells ([1]; listed as centrinone): reduced centriole number
- increase in mitotic duration (NIH/3T3 cells [2]): ~20 min
- percentage of daughters not dividing within 48 hours (RPE1 cells; RPE1, FIG. 18A): 1.5%
- 0-centrosome progeny of pioneer 1-centrosome mothers arrested (RPE1 cells; RPE1, acute treatment): 33.0%
- 1-centrosome progeny of pioneer 1-centrosome mothers arrested (RPE1 cells; RPE1, acute treatment): 25.5%
- progeny of pioneer 0-centrosome mothers arrested (RPE1 cells; RPE1, acute treatment): 70%
- proliferation versus controls (NIH/3T3 cells [3]; NIH/3T3, first two days after addition): identical to controls
- cell death per generation explaining reduced proliferation rate (NIH/3T3 cells [3]; centrosome-less NIH/3T3, theoretical curves versus measurements): 15%
